From PubChem BioAssay (NCI)
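Five concentrations, 48 hours, 96-well plates. At the GI50, growth is halved. At the TGI there is no net growth.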 *1 amine or outer side, *2 acyl side, *3 side chain or, on linkers, in order; H or OH if unused. Where a SMILES comes first, the peptide text is derived from it. Bridges are numbered along the chain shown (N, C = ends). [ ]: non-standard residue; d: D form. The star is where a group is joined. Phe(3-Me) = Cc1cccc(C[C@H](N)C(=O)O)c1; NH(4-Cl-2-F-phenyl) = Fc1cc(Cl)ccc1N*; Pro(4R-Me) = C[C@H]1CN[C@H](C(=O)O)C1; Propanoyl(3-NMe2) = CN(C)CCC(=O)*; Hyp = O=C(O)[C@@H]1C[C@@H](O)CN1; aThr = C[C@H](O)[C@H](N)C(=O)O; Pip = O=C(O)[C@@H]1CCCCN1; CO = O=C([*:1])[*:2]

How the values were obtained:
Assay in all cases: inhibition of tumour cell growth, NCI panel, 48 h
[1] = tested on: HS 578T breast
[2] = tested on: KM12 colon
[3] = tested on: SK-MEL-5 melanoma
[4] = tested on: A549 NSCLC
[5] = tested on: OVCAR-5 ovarian
[6] = tested on: U251 CNS
[7] = tested on: MDA-MB-231 breast
[8] = tested on: COLO 205 colon
[9] = tested on: M14 melanoma
[10] = tested on: UACC-257 melanoma

| SMILES | TGI [1] | TGI [2] | TGI [3] | TGI [4] | TGI [5] | TGI [6] | TGI [7] | TGI [8] | TGI [9] | TGI [10] | GI50 [1] | GI50 [2] | GI50 [3] | GI50 [4] | GI50 [5] | GI50 [6] | GI50 [7] | GI50 [8] | GI50 [9] | GI50 [10] |
| --- | --- | --- | --- | --- | --- | --- | --- | --- | --- | --- | --- | --- | --- | --- | --- | --- | --- | --- | --- | --- |
| O=[N+]([O-])c1ccc(-c2cn(-c3ccc(Cl)cc3)cn2)cc1 | > 100 µM | > 100 µM | > 100 µM | > 100 µM | > 100 µM | > 100 µM | > 100 µM | > 100 µM | > 100 µM | > 100 µM | – | – | – | – | – | – | – | – | – | – |
| COc1cc(NC(N)=NCCC(C)(C)c2ccc(C(F)(F)F)cc2)ncc1C#N | 4.55 µM | 3.38 µM | 2.94 µM | 3.06 µM | 3.76 µM | 3.05 µM | 3.34 µM | 3.21 µM | 3.24 µM | 3.32 µM | 2.14 µM | 1.8 µM | 1.58 µM | 1.61 µM | 1.97 µM | 1.67 µM | 1.8 µM | 1.65 µM | 1.7 µM | 1.77 µM |
| COc1cc(C2C(C#N)=C(N)Oc3cc(O)ccc32)cc(OC)c1OC (stereo not given) | > 100 µM | 63.3 µM | 26.7 µM | > 100 µM | > 100 µM | > 100 µM | > 100 µM | 4.1 µM | > 100 µM | > 100 µM | 0.4 µM | 0.454 µM | 0.37 µM | 0.625 µM | 2.36 µM | 0.439 µM | 1.85 µM | 0.583 µM | 0.409 µM | 0.401 µM |
| CC[C@@]1(O)C(=O)OCc2c1cc1n(c2=O)Cc2c-1nc1ccccc1c2/C=N/OC(C)(C)C | > 85.5 µM | 4.84 µM | 0.102 µM | 1.52 µM | 5.47 µM | 0.812 µM | 18.1 µM | 2.05 µM | 0.226 µM | 1.32 µM | 1.13 µM | 0.0441 µM | < 0.01 µM | < 0.01 µM | 0.113 µM | < 0.01 µM | 0.552 µM | 0.0483 µM | < 0.01 µM | 0.0666 µM |
| CC(=O)Nc1sc2c(c1-c1nc3ccccc3s1)CNC2 | 22.6 µM | > 50 µM | 11.2 µM | 25 µM | 18 µM | 30.3 µM | 16.2 µM | 9.73 µM | 9.71 µM | 14.8 µM | 7.05 µM | 3.38 µM | 5.23 µM | 2.26 µM | 3.05 µM | 4.06 µM | 3.09 µM | 1.88 µM | 2.47 µM | 5.41 µM |
| CSc1nc2c(c(=O)[nH]1)C(c1ccc(Cl)cc1)C1=C(N2)/C(=C/c2ccc(Cl)cc2)CNC1 (stereo not given) | 84.1 µM | 4.47 µM | 12.4 µM | 5.91 µM | 6.25 µM | 3.09 µM | 4.48 µM | 3.53 µM | 6.18 µM | 9.4 µM | 3.6 µM | 2.06 µM | 3.26 µM | 2.21 µM | 2.53 µM | 1.61 µM | 1.75 µM | 1.91 µM | 2.23 µM | 2.63 µM |
| Cc1cccc(C[C@H](NC(=O)Nc2ccc(Cl)cc2F)C(=O)N[C@@H]2C(=O)N3C[C@H](OC(=O)CCN(C)C)C[C@H]3C(=O)N3CCCC[C@H]3C(=O)N[C@@H](C)C(=O)N3C[C@H](C)C[C@H]3C(=O)O[C@H]2C)c1 ({NH(4-Cl-2-F-phenyl)-CO}-[Phe(3-Me)][aThr][Hyp](Propanoyl(3-NMe2))[Pip]A[Pro(4R-Me)]; ester 2-C) | 3.82 µM | 2.34 µM | 1.62 µM | 11.2 µM | 2.53 µM | 7.27 µM | 1.66 µM | 1.43 µM | 1.89 µM | 2.14 µM | 0.474 µM | 0.746 µM | 0.46 µM | 0.526 µM | 0.552 µM | 0.441 µM | 0.417 µM | 0.355 µM | 0.474 µM | 0.385 µM |
| CCCCCCCCCC(CCCC(O)CC(=O)O)OC1OC(COC2OC(C)C(O)C(O)C2O)C(O)C(O)C1OC1OC(CO)C(O)C(O)C1OC1OC(C)C(O)C(O)C1O (stereo not given) | > 40 µM | > 40 µM | > 40 µM | > 40 µM | > 40 µM | > 40 µM | > 40 µM | > 40 µM | > 40 µM | > 40 µM | > 40 µM | > 40 µM | > 40 µM | > 40 µM | > 40 µM | > 40 µM | > 40 µM | > 40 µM | > 40 µM | > 40 µM |
| C=C1C(=O)OC2/C=C(\C)C3OC3/C=C(/C(=O)OC)C(OC(C)=O)C(OC(=O)C(C)(O)C(C)OC(C)=O)C12 (stereo not given) | 29.7 µM | 6.36 µM | 7.09 µM | 35.5 µM | 10.7 µM | 10.3 µM | 22.6 µM | 8.97 µM | 8.05 µM | 2.34 µM | – | – | – | – | – | – | – | – | – | – |
| C/C(=N\NC(=O)c1ccncc1)c1ccc(O)cc1O | > 100 µM | > 100 µM | 29.6 µM | > 100 µM | > 100 µM | > 100 µM | > 100 µM | > 100 µM | > 100 µM | 88.5 µM | 43.3 µM | 8.59 µM | 3.47 µM | 5.87 µM | 27 µM | 1.59 µM | 3.88 µM | 3.8 µM | 6.44 µM | 4.06 µM |
| Cc1nn(-c2ccc(Br)cc2)c(C)c1CC(=O)c1cc(O)ccc1O | > 50 µM | > 50 µM | 20.3 µM | 20.7 µM | > 50 µM | 21.8 µM | 15 µM | > 50 µM | > 50 µM | 26.6 µM | 22.7 µM | 5.91 µM | 6.84 µM | 10.5 µM | 16.2 µM | 10.1 µM | 5.35 µM | 16.4 µM | 29.6 µM | 11.2 µM |
| COC(=O)C1C2CCCN2OC1(C)CO (stereo not given) | > 100 µM | > 100 µM | > 100 µM | > 100 µM | > 100 µM | > 100 µM | > 100 µM | > 100 µM | > 100 µM | > 100 µM | – | – | – | – | – | – | – | – | – | – |
| C[C@@]1(N2C(=O)OC[C@@H]2c2ccccc2)C(=O)N([C@H](CC(=O)N2CCC(N3CCCCC3)CC2)C(=O)NCc2cccc(C(F)(F)F)c2)[C@@H]1/C=C/c1ccccc1 | 4.78 µM | 6.21 µM | 3.21 µM | 4.23 µM | 9.4 µM | 3.43 µM | 4.03 µM | 3.58 µM | 3.6 µM | 3.97 µM | 2.09 µM | 2.42 µM | 1.81 µM | 2.06 µM | 2.78 µM | 1.83 µM | 2.07 µM | 1.8 µM | 1.93 µM | 2.09 µM |
| Oc1cc2ccccc2cc1-c1n[nH]c(=S)n1-c1ccc(Cl)cc1 | 90.2 µM | > 100 µM | 38.2 µM | > 100 µM | 95.6 µM | 90.9 µM | 38.3 µM | > 100 µM | > 100 µM | 56.7 µM | 12.4 µM | 9.14 µM | 14.4 µM | 25.3 µM | 27.6 µM | 13 µM | 8.88 µM | 41.7 µM | 15.1 µM | 18.7 µM |
| O=C(O)/C=C\C(=O)Nc1ccc2c(c1)C(=O)c1cc(F)ccc1-2 | > 100 µM | > 100 µM | > 100 µM | > 100 µM | > 100 µM | > 100 µM | > 100 µM | > 100 µM | > 100 µM | > 100 µM | – | – | – | – | – | – | – | – | – | – |
| CC([O-])C(=O)[O-].NCC1CCC1CN.[Pt+4] (stereo not given) | > 10 µM | > 10 µM | > 10 µM | > 10 µM | > 10 µM | > 10 µM | > 10 µM | > 10 µM | > 10 µM | > 10 µM | > 10 µM | > 10 µM | 7.41 µM | > 10 µM | > 10 µM | > 10 µM | > 10 µM | > 10 µM | > 10 µM | > 10 µM |
| O=C(Nc1ccc(Br)cc1F)c1cc(Br)ccc1O | 5.66 µM | 5.66 µM | 1.19 µM | 16.4 µM | 33.3 µM | 13.3 µM | 4.9 µM | 9.11 µM | 5.48 µM | 5.34 µM | 0.467 µM | 1.93 µM | 0.289 µM | 2.11 µM | 2.97 µM | 0.64 µM | 1.09 µM | 2.95 µM | 0.713 µM | 0.829 µM |
| COc1ccc(/C=C/C(=O)c2ccc(Nc3ccnc4cc(Cl)ccc34)cc2)cc1 | > 100 µM | > 100 µM | > 100 µM | > 100 µM | > 100 µM | > 100 µM | > 100 µM | > 100 µM | > 100 µM | > 100 µM | > 100 µM | > 79.4 µM | 21.6 µM | > 100 µM | > 100 µM | > 100 µM | 31.1 µM | 70.2 µM | > 100 µM | > 100 µM |
| CN1CCCCC1CCN1c2ccccc2Sc2ccc(S(C)=O)cc21 (stereo not given) | > 100 µM | > 100 µM | > 100 µM | > 100 µM | > 100 µM | > 100 µM | > 100 µM | > 100 µM | > 100 µM | > 100 µM | – | – | – | – | – | – | – | – | – | – |
